Experimental data taken from patent US9073942B2, “Antiviral compounds with a heterotricycle moiety” (Lupin Limited, priority 2012, dated 2015).
pIC50: −log10 of the molar value.

Legend:
[1] = tested on: bicistronic genotype 2a replicon in Huh 7.5 cells; test: HCV replicon assay, genotype 2a (Huh7.5/J6/JFH1/EMCVIRES/hRlucNeo cell line, Renilla luciferase readout); assay type: cell-based; details: Hepatitis C virus, Huh7.5, 72 h, read-out: Gt2a IC50
From the text: (§1) Anti-viral activity of the compounds of the invention was monitored using an HCV replicon assay. The Huh7.5 Con1/SG-Neo(I)hRluc2aUb cell line persistently expressing a bicistronic genotype 1b replicon in Huh 7.5 cells and the Huh7.5/J6/JFH1/EMCVIRES/hRlucNeo cell line expressing a bicistronic genotype 2a replicon in Huh 7.5 cells were obtained from Apath LLC. These cell lines were used to test inhibition of replicon levels by test compound using Renilla luciferase enzyme activity readout as a measure of viral replication efficiency.
(§2) Briefly, 7000-7500 cells were seeded in 96 well black clear bottom plates and allowed to adhere overnight. The next day each compound was added in triplicate to the cells at the desired concentration with a final DMSO concentration of 0.5%. Cells in media alone and cells incubated without drug with 0.5% DMSO served as controls. The plates were incubated for 72h at 37° C. prior to running the luciferase assay. Enzyme activity was measured using Renilla-Glo Luciferase Assay kit from Promega as per the manufacturer's instructions. The following equation was used to generate the percent inhibition value for each test concentration.
(§3) The IC50 value was determined using GraphPad Prism and the following equation: Y=Bottom+(Top−Bottom)(1+10^((Log IC50−X)*Hill slope))
(§4) IC50/values % inhibitions of compounds were determined 2-3 times in the replicon assays.

[2] = tested on: bicistronic genotype 1b replicon in Huh 7.5 cells; test: HCV replicon assay, genotype 1b (Huh7.5 Con1/SG-Neo(I)hRluc2aUb cell line, Renilla luciferase readout); assay type: cell-based; details: Hepatitis C virus, Huh7.5, 72 h, read-out: Gt1b IC50
From the text: as §1, §2, §3, §4

| Structure (SMILES) | pIC50 [1] | pIC50 [2] |
| --- | --- | --- |
| COC(=O)N[C@H](C(=O)N1CCC[C@H]1c1ncc(-c2ccc3c(c2)OCc2cc(-c4cnc([C@@H]5CCCN5C(=O)[C@@H](NC(=O)OC)C(C)C)[nH]4)sc2-3)[nH]1)C(C)C [Compound 1, dimethyl((2S,2′S)-((2S,2′S)-2,2′-(5,5′-(4H-thieno[3,2-c]chromene-2,7-diyl)bis(1H-imidazole-5,2-diyl))bis(pyrrolidine-2,1-diyl))bis(3-methyl-1-oxobutane-2,1-diyl))dicarbamate] | 9.00 to 12.00 | 9.00 to 12.00 |
| COC(=O)N[C@H](C(=O)N1CCC[C@H]1c1ncc(-c2ccc3c(c2)OCCc2cc(-c4cnc([C@@H]5CCCN5C(=O)[C@@H](NC(=O)OC)C(C)C)[nH]4)sc2-3)[nH]1)C(C)C [Compound 2, dimethyl((2S,2′S)-((2S,2′S)-2,2′-(5,5′-(4,5-dihydrobenzo[b]thieno[2,3-d]oxepine-2,8-diyl)bis(1H-imidazole-5,2-diyl))bis(pyrrolidine-2,1-diyl))bis(3-methyl-1-oxobutane-2,1-diyl))dicarbamate] | 7.00 to 9.00 | 9.00 to 12.00 |
| COC(=O)N[C@H](C(=O)N1CCC[C@H]1c1nc(Cl)c(-c2ccc3c(c2)OCCc2cc(-c4[nH]c([C@@H]5CCCN5C(=O)[C@@H](NC(=O)OC)C(C)C)nc4Cl)sc2-3)[nH]1)C(C)C [Compound 3, dimethyl((2S,2′S)-((2S,2′S)-2,2′-(5,5′-(4,5-dihydrobenzo[b]thieno[2,3-d]oxepine-2,8-diyl)bis(4-chloro-1H-imidazole-5,2-diyl))bis(pyrrolidine-2,1-diyl))bis(3-methyl-1-oxobutane-2,1-diyl))dicarbamate] | 7.00 to 9.00 | 9.00 to 12.00 |
| COC(=O)N[C@H](C(=O)N1CCC[C@H]1c1ncc(-c2ccc3c(ccc4sc(-c5cnc([C@@H]6CCCN6C(=O)[C@@H](NC(=O)OC)C(C)C)[nH]5)nc43)c2)[nH]1)C(C)C [Compound 4, dimethyl((2S,2′S)-((2S,2′S)-2,2′-(5,5′-(naphtho[1,2-d]thiazole-2,7-diyl)bis(1H-imidazole-5,2-diyl))bis(pyrrolidine-2,1-diyl))bis(3-methyl-1-oxobutane-2,1-diyl))dicarbamate] | < 7.00 | 9.00 to 12.00 |
| COC(=O)N[C@H](C(=O)N1CCC[C@H]1c1ncc(-c2ccc3c(c2)CCc2cc(-c4cnc([C@@H]5CCCN5C(=O)[C@@H](NC(=O)OC)C(C)C)[nH]4)sc2-3)[nH]1)C(C)C [Compound 5, dimethyl((2S,2′S)-((2S,2′S)-2,2′-(5,5′-(4,5-dihydronaphtho[1,2-b]thiophene-2,7-diyl)bis(1H-imidazole-5,2-diyl))bis(pyrrolidine-2,1-diyl))bis(3-methyl-1-oxobutane-2,1-diyl))dicarbamate] | 9.00 to 12.00 | 9.00 to 12.00 |
| COC(=O)N[C@H](C(=O)N1CCC[C@H]1c1nc(Cl)c(-c2ccc3c(c2)CCc2c-3sc(-c3[nH]c([C@@H]4CCCN4C(=O)[C@@H](NC(=O)OC)C(C)C)nc3Cl)c2Cl)[nH]1)C(C)C [Compound 6, dimethyl((2S,2′S)-((2S,2′S)-2,2′-(5,5′-(3-chloro-4,5-dihydronaphtho[1,2-b]thiophene-2,7-diyl)bis(4-chloro-1H-imidazole-5,2-diyl))bis(pyrrolidine-2,1-diyl))bis(3-methyl-1-oxobutane-2,1-diyl))dicarbamate] | 9.00 to 12.00 | 9.00 to 12.00 |
| COC(=O)N[C@H](C(=O)N1CCC[C@H]1c1ncc(-c2ccc3c(ccc4cc(-c5cnc([C@@H]6CCCN6C(=O)[C@@H](NC(=O)OC)C(C)C)[nH]5)sc43)c2)[nH]1)C(C)C [Compound 7, dimethyl((2S,2′S)-((2S,2′S)-2,2′-(5,5′-(naphtho[1,2-b]thiophene-2,7-diyl)bis(1H-imidazole-5,2-diyl))bis(pyrrolidine-2,1-diyl))bis(3-methyl-1-oxobutane-2,1-diyl))dicarbamate] | 9.00 to 12.00 | 9.00 to 12.00 |
| COC(=O)N[C@H](C(=O)N1CCC[C@H]1c1ncc(-c2ccc3c(c2)CCCc2cc(-c4cnc([C@@H]5CCCN5C(=O)[C@@H](NC(=O)OC)C(C)C)[nH]4)sc2-3)[nH]1)C(C)C [Compound 8, dimethyl((2S,2′S)-((2S,2′S)-2,2′-(5,5′-(5,6-dihydro-4H-benzo[6,7]cyclohepta[1,2-b]thiophene-2,8-diyl)bis(1H-imidazole-5,2-diyl))bis(pyrrolidine-2,1-diyl))bis(3-methyl-1-oxobutane-2,1-diyl))dicarbamate] | 9.00 to 12.00 | 9.00 to 12.00 |
| COC(=O)N[C@H](C(=O)N1CCC[C@H]1c1nc(Cl)c(-c2ccc3c(c2)CCCc2cc(-c4[nH]c([C@@H]5CCCN5C(=O)[C@@H](NC(=O)OC)C(C)C)nc4Cl)sc2-3)[nH]1)C(C)C [Compound 9, dimethyl((2S,2′S)-((2S,2′S)-2,2′-(5,5′-(5,6-dihydro-4H-benzo[6,7]cyclohepta[1,2-b]thiophene-2,8-diyl)bis(4-chloro-1H-imidazole-5,2-diyl))bis(pyrrolidine-2,1-diyl))bis(3-methyl-1-oxobutane-2,1-diyl))dicarbamate] | 9.00 to 12.00 | 9.00 to 12.00 |
| COC(=O)N[C@H](C(=O)N1C(c2ncc(-c3ccc4c(ccc5cc(-c6cnc(C7[C@H]8CC[C@H](C8)N7C(=O)[C@@H](NC(=O)OC)C(C)C)[nH]6)sc54)c3)[nH]2)[C@H]2CC[C@@H]1C2)C(C)C (stereo partly drawn) [Compound 10, dimethyl((2S,2′S)-((1R,1′R,3S,3′S,4S,4′S)-3,3′-(5,5′-(naphtho[1,2-b]thiophene-2,7-diyl)bis(1H-imidazole-5,2-diyl))bis(2-azabicyclo[2.2.1]heptane-3,2-diyl))bis(3-methyl-1-oxobutane-2,1-diyl))dicarbamate] | 9.00 to 12.00 | 9.00 to 12.00 |
| COC(=O)N[C@H](C(=O)N1CCC[C@H]1c1ncc(-c2ccc3c(ccc4cc(-c5cnc([C@@H]6[C@H]7CC[C@H](C7)N6C(=O)[C@@H](NC(=O)OC)C(C)C)[nH]5)sc43)c2)[nH]1)C(C)C [Compound 11, methyl((S)-1-((S)-2-(5-(2-(2-((1R,3S,4S)-2-((S)-2-(methoxycarbonyl)amino-3-methylbutanoyl)-2-azabicyclo[2.2.1]heptan-3-yl)-1H-imidazol-5-yl)naphtho[1,2-b]thiophen-7-yl)-1H-imidazol-2-yl)pyrrolidin-1-yl)-3-methyl-1-oxobutan-2-yl)carbamate] | 9.00 to 12.00 | 9.00 to 12.00 |
